In ChEMBL document CHEMBL5523733, “Small Molecule Targeting PPM1A Activates Autophagy for Mycobacterium tuberculosis Host-Directed Therapy” (J Med Chem, 2024):

System: Mycobacterium tuberculosis
Experiment: Anti-mycobacterial activity against Mycobacterium tuberculosis mc2 6206 expressing autoluminescent luciferase infected in human THP-1 cells assessed as reduction in bacterial burden pretreated for 24 hrs followed by bacterial infection measured for 5 days post-infection with re-current replacement of media with compound for every 2 days by luminescence based assay
Type: functional, organism-based
Conditions: dose 0.5-5 µM, time 6.0 day

Q: With CCOc1ccc2c(c1)c[n+](CCO)c1ccc(F)cc21.[Br-] as the compound, how does the Activity read?
A: Dose-Dependent Effect
